Assay results: patent US5821246A, “Aniline derivatives” (Zeneca Limited, priority 1994, dated 1998)
Where a name gives a salt, the structure may show the parent alone.

Tests used:
[1] = system: EGF receptor tyrosine kinase; conditions: Fry et al., Science, 1994, 265, 1093; cited from earlier work
[2] = system: liver hepatocyte growth caused by the administration of the growth factor TGFα; assay: Test (c): in vivo inhibition of TGFα-stimulated liver hepatocyte growth in male rats (BrdU uptake); conditions: Rattus norvegicus, usually oral, TGFα 400 μg/kg subcutaneously, approximate ED50, BrdU uptake
Description: (c) An in vivo assay in a group of male rats which determines the ability of a test compound (usually administered orally as a ball-milled suspension in 0.5% polysorbate) to inhibit the stimulation of liver hepatocyte growth caused by the administration of the growth factor TGFα (400 μg/kg subcutaneously, usually dosed twice, 3 and 7 hours respectively after the administration of the test compound).
In a control group of rats, the administration of TGFα causes on average a 5-fold stimulation of liver hepatocyte growth.
Cell-growth in the control and test animals is determined as follows:
On the morning of the day after the dosing of the test compound (or 0.5% polysorbate in the control group), the animals are dosed with bromodeoxyuridine (BrdU; 100 mg/kg intraperitoneally). The animals are killed four hours later and the livers are excised.
Further tests were carried out using a range of doses of the test compounds to allow the calculation of an approximate ED50 value for the inhibition of liver hepatocyte proliferation as determined by inhibition of the uptake of BrdU.

[3] = molecular target: T1, EGF receptor tyrosine kinase (Homo sapiens, UniProt P00533); assay: Test (a): in vitro inhibition of the enzyme EGF receptor tyrosine kinase (partially purified from A-431 cells); type: biochemical; conditions: EGF receptor tyrosine kinase from A-431 cells
T1 construct: Receptor tyrosine kinase was obtained in partially purified form from A-431 cells; endogenous in cells; host or cells: A-431 cells (human vulval carcinoma)
T1 sequence (P00533 25-1210): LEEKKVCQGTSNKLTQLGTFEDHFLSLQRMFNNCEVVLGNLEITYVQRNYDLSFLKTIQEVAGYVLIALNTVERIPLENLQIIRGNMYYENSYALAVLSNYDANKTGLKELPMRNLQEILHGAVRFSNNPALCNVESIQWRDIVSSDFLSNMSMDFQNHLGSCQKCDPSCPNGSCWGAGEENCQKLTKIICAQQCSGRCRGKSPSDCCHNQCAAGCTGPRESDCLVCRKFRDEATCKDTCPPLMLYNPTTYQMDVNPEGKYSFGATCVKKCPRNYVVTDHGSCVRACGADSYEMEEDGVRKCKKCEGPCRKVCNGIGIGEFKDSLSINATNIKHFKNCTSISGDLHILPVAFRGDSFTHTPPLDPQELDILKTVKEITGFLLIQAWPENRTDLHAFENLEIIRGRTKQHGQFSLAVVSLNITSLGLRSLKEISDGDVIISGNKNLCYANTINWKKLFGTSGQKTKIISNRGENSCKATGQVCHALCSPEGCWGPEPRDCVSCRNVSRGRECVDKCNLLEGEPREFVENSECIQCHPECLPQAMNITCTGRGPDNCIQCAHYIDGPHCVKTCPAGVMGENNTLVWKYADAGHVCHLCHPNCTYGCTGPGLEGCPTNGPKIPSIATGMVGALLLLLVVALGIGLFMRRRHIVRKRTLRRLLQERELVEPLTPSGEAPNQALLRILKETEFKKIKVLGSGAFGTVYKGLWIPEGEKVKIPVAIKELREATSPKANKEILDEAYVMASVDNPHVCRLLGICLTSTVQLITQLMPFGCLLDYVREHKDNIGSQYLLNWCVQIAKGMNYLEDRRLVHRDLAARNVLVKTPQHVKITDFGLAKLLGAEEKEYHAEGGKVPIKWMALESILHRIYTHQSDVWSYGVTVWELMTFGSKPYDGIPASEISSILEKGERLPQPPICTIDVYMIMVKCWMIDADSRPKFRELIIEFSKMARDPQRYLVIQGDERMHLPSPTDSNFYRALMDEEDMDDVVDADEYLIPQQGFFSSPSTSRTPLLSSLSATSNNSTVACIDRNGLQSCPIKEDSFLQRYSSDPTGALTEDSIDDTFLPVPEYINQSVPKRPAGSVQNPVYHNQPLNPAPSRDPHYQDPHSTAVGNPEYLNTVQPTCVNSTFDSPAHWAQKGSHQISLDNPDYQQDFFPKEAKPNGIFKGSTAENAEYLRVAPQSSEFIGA
Description: (a) An in vitro assay which determines the ability of a test compound to inhibit the enzyme EGF receptor tyrosine kinase. Receptor tyrosine kinase was obtained in partially purified form from A-431 cells (derived from human vulval carcinoma) by procedures related to those described by Carpenter et al., J. Biol. Chem., 1979, 254, 4884, Cohen et al., J. Biol. Chem., 1982, 257, 1523 and by Braun et al., J. Biol. Chem., 1984, 259, 2051.
A-431 cells were grown to confluence using Dulbecco's modified Eagle's medium (DHEM) containing 5% fetal calf serum (FCS). The obtained cells were homogenised in a hypotonic borate/EDTA buffer at pH 10.1. The homogenate was centrifuged at 400 g for 10 minutes at 0°-4° C. The supernatant was centrifuged at 25,000 g for 30 minutes at 0°-4° C. The pelleted material was suspended in 30 mM Hepes buffer at pH 7.4 containing 5% glycerol, 4 mM benzamidine and 1% Triton X-100, stirred for 1 hour at 0°-4° C., and recentrifuged at 100,000 g for 1 hour at 0°-4° C. The supernatant, containing solubilised receptor tyrosine kinase, was stored in liquid nitrogen.
For test purposes 40 μl of the enzyme solution so obtained was added to a mixture of 400 μl of a mixture of 150 mM Hepes buffer at pH 7.4, 500 μM sodium orthovanadate, 0.1% Triton X-100, 10% glycerol, 200 μl water, 80 μl of 25 mH DTT and 80 μl of a mixture of 12.5 mM manganese chloride, 125 mM magnesium chloride and distilled water. There was thus obtained the test enzyme solution.
Each test compound was dissolved in dimethylsulphoxide (DMSO) to give a 50 mM solution which was diluted with 40 mM Hepes buffer containing 0.1% Triton X-100, 10% glycerol and 10% DMSO to give a 500 μM solution. Equal volumes of this solution and a solution of epidermal growth factor (EGF; 20 μg/ml) were mixed.
[γ-^32 P]ATP (3000 Ci/mM, 250 μCi) was diluted to a volume of 2 ml by the addition of a solution of ATP (100 μM) in distilled water. An equal volume of a 4 mg/ml solution of the peptide Arg-Arg-Leu-Ile-Glu-Asp-Ala-Glu-Tyr-Ala-Ala-Arg-Gly in a mixture of 40 mH Hepes buffer at pH 7.4, 0.1% Triton X-100 and 10% glycerol was added.
The test compound/EGF mixture solution (5 μl) was added to the test enzyme solution (10 μl) and the mixture was incubated at 0°-4° C. for 30 minutes. The ATP/peptide mixture (10 μl) was added and the mixture was incubated at 25° C. for 10 minutes. The phosphorylation reaction was terminated by the addition of 5% trichloroacetic acid (40 μl) and bovine serum albumin (BSA; 1 mg/ml, 5 μl). The mixture was allowed to stand at 4° C. for 30 minutes and then centrifuged. An aliquot (40 μl) of the supernatant was placed onto a strip of Whatman p 81 phosphocellulose paper. The strip was washed in 75 mH phosphoric acid (4×10 ml) and blotted dry. Radioactivity present in the filter paper was measured using a liquid scintillation counter (Sequence A). The reaction sequence was repeated in the absence of the EGF (Sequence B) and again in the absence of the test compound (Sequence C).
Receptor tyrosine kinase inhibition was calculated as follows: [formula]
The extent of inhibition was then determined at a range of concentrations of test compound to give an IC50 value.

[4] = system: human naso-pharyngeal cancer cell line KB; assay: Test (b): inhibition of the EGF-stimulated growth of the human naso-pharyngeal cancer cell line KB; type: cell-based; conditions: 72 h, KB cells, EGF (10 ng/ml), 3 days, MTT
Description: (b) An in vitro assay which determines the ability of a test compound to inhibit the EGF-stimulated growth of the human naso-pharyngeal cancer cell line KB.
KB cells were seeded into wells at a density of 1×10^4 -1.5×10^4 cells per well and grown for 24 hours in DHEM supplemented with 5% FCS (charcoal-stripped). Cell growth was determined after incubation for 3 days by the extent of metabolism of MTT tetrazolium dye to furnish a bluish colour. Cell growth was then determined in the presence of EGF (10 ng/ml) or in the presence of EGF (10 ng/ml) and a test compound at a range of concentrations. An IC50 value could then be calculated.

[5] = system: human mammary carcinoma which expresses EGF receptor tyrosine kinase; conditions: athymic nude mice; Toi et al., 1990; cited from earlier work
[6] = system: another carcinoma which does not express EGF receptor tyrosine kinase; conditions: Toi et al., 1990; cited from earlier work

| SMILES | IC50 [3] [nM] | IC50 [4] [nM] | inhibitor of EGF receptor tyrosine kinase [1] | ED50 [2] [mg/kg] | growth of transplanted carcinoma expressing EGF receptor tyrosine kinase [5] | growth of carcinoma not expressing EGF receptor tyrosine kinase [6] |
| --- | --- | --- | --- | --- | --- | --- |
| COc1cc2ncnc(Nc3cccc(Br)c3)c2cc1OC [4-(3'-bromoanilino)-6,7-dimethoxyquinazoline] | – | – | highly potent inhibitor | – | – | – |
| COc1cc2ncnc(Nc3ccc(Sc4ccccc4)c(Cl)c3)c2cc1OC [4-(3-chloro-4-phenylthioanilino)-6,7-dimethoxyquinazoline] | 80 | 1300 | – | 12.5 | – | – |
| COc1cc2ncnc(Nc3ccc(Cc4ccccc4)c(Cl)c3)c2cc1OC.I [4-(4-benzyl-3-chloroanilino)-6,7-dimethoxyquinazoline hydroiodide salt] | 100 | 1200 | – | < 12.5 | – | – |
| COc1cc2ncnc(Nc3ccc(OCc4ccccn4)c(C)c3)c2cc1OC.Cl.Cl [6,7-dimethoxy-4-[3-methyl-4-(2-pyridylmethoxy)anilino]quinazoline dihydrochloride salt] | 40 | 930 | – | 5 | – | – |
| COc1cc2ncnc(Nc3ccc(OCc4ccccn4)c(C)c3)c2cc1OCCCN1CCOCC1 [7-methoxy-4-[3-methyl-4-(2-pyridylmethoxy)anilino]-6-(3-morpholinopropoxy)quinazoline] | 450 | 2090 | – | – | – | – |
| O=CN/C=C/c1cc(O)ccc1O [erbstatin] | – | – | – | – | specifically attenuates the growth | without effect on the growth |

Further compounds by falling IC50 [3], results first:

| IC50 [3] [nM] | IC50 [4] [nM] | SMILES | inhibitor of EGF receptor tyrosine kinase [1] | ED50 [2] [mg/kg] | growth of transplanted carcinoma expressing EGF receptor tyrosine kinase [5] | growth of carcinoma not expressing EGF receptor tyrosine kinase [6] |
| --- | --- | --- | --- | --- | --- | --- |
| 66 | 430 | COc1cc2ncnc(Nc3ccc(OCc4ccccn4)c(C)c3)c2cc1OCCCN(C)C [6-(3-dimethylaminopropoxy)-7-methoxy-4-[3-methyl-4-(2-pyridylmethoxy)anilino]quinazoline] | – | – | – | – |
| 30 | 380 | COc1cc2ncnc(Nc3ccc(C(=O)c4ccccc4)c(Cl)c3)c2cc1OC.Cl [4-(4-benzoyl-3-chloroanilino)-6,7-dimethoxyquinazoline hydrochloride salt] | – | < 5 | – | – |
| 7 | 200 | COc1cc2ncnc(Nc3ccc(Sc4nccn4C)c(Cl)c3)c2cc1OC [4-[3-chloro-4-(1-methylimidazol-2-ylthio)anilino]-6,7-dimethoxyquinazolinedihydrochloride salt] | – | < 12.5 | – | – |
